# In patent US11452727B2, “Combination therapy for treating cancer” (Epizyme, Inc., priority 2017, dated 2022):
# Tests used:
# Assay in all cases: In vitro combination study with tazemetostat, cell proliferation (Cell Titer Glo)
# NCI-H23 = details: 7 days tazemetostat pre-treatment, 6 days co-treatment with second agent
# Procedure: (§1) Initial proliferation studies were performed to determine the IC50 of tazemetostat in each cell line. For the screen, tazemetostat was used at concentrations bracketed around the IC50 value. If 50% inhibitory concentration was not reached then tazemetostat was tested starting at 10 μM.
# (§2) In order to study the effect of dual combination of tazemetostat and a second agent on cell proliferation, cells in log-linear phase growth rate were pre-treated with various concentrations of tazemetostat or DMSO for 7 days in flasks, plated in 384-well plates in the absence of compounds and co-treated on day 8 with tazemetostat or DMSO and the second agent serially diluted for additional 6 days (as depicted in FIG. 1). On day 15, plates were developed for endpoint analysis using Cell Titer Glo to measure ATP content, which was used as an indicator of cell viability. DMSO concentration was kept constant throughout the assay at 0.15% v/v.
# (§3) All cell lines were obtained from American Type Culture Collection (ATCC; Rockville, Md.). […] A427, Calu-3, Calu-6 cell lines were cultured in EMEM+10% Fetal bovine serum (FBS)+1% v/v Penicillin/Streptomycin (P/S).
# NCI-H522 = details: 7 days tazemetostat pre-treatment, 6 days co-treatment with second agent
# NCI-H2110 = details: 7 days tazemetostat pre-treatment, 6 days co-treatment with second agent
# A549 = details: 7 days tazemetostat pre-treatment, 6 days co-treatment with second agent
# Procedure: as §1, §2
# A427 = details: A427; 7 days tazemetostat pre-treatment, 6 days co-treatment with second agent
# Procedure: as §1, §2, §3
# Calu-3 = details: 7 days tazemetostat pre-treatment, 6 days co-treatment with second agent
# Procedure: as §1, §2
# (§4) NCI-H1573 was cultured in DMEM: F12 Medium containing the following components: 0.02 mg/ml insulin, 0.01 mg/ml transferrin, 25 nM sodium selenite, 50 nM Hydrocortisone, 1 ng/ml Epidermal Growth Factor, 0.01 mM ethanolamine, 0.01 mM phosphorylethanolamine, 100 pM triiodothyronine, 0.5% (w/v) bovine serum albumin, 0.5 mM sodium pyruvate, 4.5 mM L-glutamine and 1% v/v Pen/Strep.
# HCC827 = details: 7 days tazemetostat pre-treatment, 6 days co-treatment with second agent
# Procedure: as §1, §2, §4
# NCI-H2122 = details: 7 days tazemetostat pre-treatment, 6 days co-treatment with second agent
# Procedure: as §1, §2, §3
# NCI-H838 = details: 7 days tazemetostat pre-treatment, 6 days co-treatment with second agent
# Procedure: as §1, §2, §4
# NCI-H460 = details: 7 days tazemetostat pre-treatment, 6 days co-treatment with second agent
# NCI-H1993 = details: 7 days tazemetostat pre-treatment, 6 days co-treatment with second agent
# NCI-H1703 = details: 7 days tazemetostat pre-treatment, 6 days co-treatment with second agent
# Procedure: as §1, §2
# NCI-H2030 = details: 7 days tazemetostat pre-treatment, 6 days co-treatment with second agent
# Calu-6 = details: 7 days tazemetostat pre-treatment, 6 days co-treatment with second agent
# Procedure: as §1, §2
# NCI-H1299 = details: 7 days tazemetostat pre-treatment, 6 days co-treatment with second agent
# NCI-H661 = details: 7 days tazemetostat pre-treatment, 6 days co-treatment with second agent
# Procedure: as §1, §2, §3
# NCI-H1793 = details: 7 days tazemetostat pre-treatment, 6 days co-treatment with second agent
# NCI-H1573 = details: 7 days tazemetostat pre-treatment, 6 days co-treatment with second agent
# Procedure: as §1, §2, §4
Structure (SMILES),combinatorial effect with tazemetostat (Loewe volume class) (NCI-H23),combinatorial effect with tazemetostat (Loewe volume class) (NCI-H522),combinatorial effect with tazemetostat (Loewe volume class) (NCI-H2110),combinatorial effect with tazemetostat (Loewe volume class) (A549),combinatorial effect with tazemetostat (Loewe volume class) (A427),combinatorial effect with tazemetostat (Loewe volume class) (Calu-3),combinatorial effect with tazemetostat (Loewe volume class) (HCC827),combinatorial effect with tazemetostat (Loewe volume class) (NCI-H2122),combinatorial effect with tazemetostat (Loewe volume class) (NCI-H838),combinatorial effect with tazemetostat (Loewe volume class) (NCI-H460),combinatorial effect with tazemetostat (Loewe volume class) (NCI-H1993),combinatorial effect with tazemetostat (Loewe volume class) (NCI-H1703),combinatorial effect with tazemetostat (Loewe volume class) (NCI-H2030),combinatorial effect with tazemetostat (Loewe volume class) (Calu-6),combinatorial effect with tazemetostat (Loewe volume class) (NCI-H1299),combinatorial effect with tazemetostat (Loewe volume class) (NCI-H661),combinatorial effect with tazemetostat (Loewe volume class) (NCI-H1793),combinatorial effect with tazemetostat (Loewe volume class) (NCI-H1573)
"CC(=O)c1c(C)c2cnc(Nc3ccc(N4CCNCC4)cn3)nc2n(C2CCCC2)c1=O [Palbociclib, palbociclib]",Syn. (Loewe volumes greater than 1 denoted “synergy”),No eff.,Add. (A value between −1 and 1 denoted “additivity”),Add. (A value between −1 and 1 denoted “additivity”),Syn. (Loewe volumes greater than 1 denoted “synergy”),Add. (A value between −1 and 1 denoted “additivity”),Add. (A value between −1 and 1 denoted “additivity”),Anta. (volumes <−1 denoted “antagonism”),Add. (A value between −1 and 1 denoted “additivity”),Add. (A value between −1 and 1 denoted “additivity”),Syn. (Loewe volumes greater than 1 denoted “synergy”),Anta. (volumes <−1 denoted “antagonism”),Add. (A value between −1 and 1 denoted “additivity”),Add. (A value between −1 and 1 denoted “additivity”),Anta. (volumes <−1 denoted “antagonism”),Syn. (Loewe volumes greater than 1 denoted “synergy”),Syn. (Loewe volumes greater than 1 denoted “synergy”),Syn. (Loewe volumes greater than 1 denoted “synergy”)
"CN(C)C(=O)c1cc2cnc(Nc3ccc(N4CCNCC4)cn3)nc2n1C1CCCC1 [Ribociclib, ribociclib]",No eff.,No eff.,No eff.,Anta. (volumes <−1 denoted “antagonism”),Syn. (Loewe volumes greater than 1 denoted “synergy”),Syn. (Loewe volumes greater than 1 denoted “synergy”),Add. (A value between −1 and 1 denoted “additivity”),Anta. (volumes <−1 denoted “antagonism”),Add. (A value between −1 and 1 denoted “additivity”),Add. (A value between −1 and 1 denoted “additivity”),Syn. (Loewe volumes greater than 1 denoted “synergy”),Anta. (volumes <−1 denoted “antagonism”),Syn. (Loewe volumes greater than 1 denoted “synergy”),No eff.,Anta. (volumes <−1 denoted “antagonism”),Syn. (Loewe volumes greater than 1 denoted “synergy”),Syn. (Loewe volumes greater than 1 denoted “synergy”),Syn. (Loewe volumes greater than 1 denoted “synergy”)
"Cn1cnc2c(F)c(Nc3ccc(Br)cc3Cl)c(C(=O)NOCCO)cc21 [Selumetinib, selumetinib]",Add. (A value between −1 and 1 denoted “additivity”),Syn. (Loewe volumes greater than 1 denoted “synergy”),Syn. (Loewe volumes greater than 1 denoted “synergy”),Add. (A value between −1 and 1 denoted “additivity”),Syn. (Loewe volumes greater than 1 denoted “synergy”),Syn. (Loewe volumes greater than 1 denoted “synergy”),Add. (A value between −1 and 1 denoted “additivity”),Anta. (volumes <−1 denoted “antagonism”),Syn. (Loewe volumes greater than 1 denoted “synergy”),Anta. (volumes <−1 denoted “antagonism”),Syn. (Loewe volumes greater than 1 denoted “synergy”),Syn. (Loewe volumes greater than 1 denoted “synergy”),Add. (A value between −1 and 1 denoted “additivity”),Syn. (Loewe volumes greater than 1 denoted “synergy”),Add. (A value between −1 and 1 denoted “additivity”),Syn. (Loewe volumes greater than 1 denoted “synergy”),Syn. (Loewe volumes greater than 1 denoted “synergy”),Syn. (Loewe volumes greater than 1 denoted “synergy”)
"CC(=O)Nc1cccc(-n2c(=O)n(C3CC3)c(=O)c3c(Nc4ccc(I)cc4F)n(C)c(=O)c(C)c32)c1 [Trametinib, trametinib]",Add. (A value between −1 and 1 denoted “additivity”),Syn. (Loewe volumes greater than 1 denoted “synergy”),Syn. (Loewe volumes greater than 1 denoted “synergy”),Anta. (volumes <−1 denoted “antagonism”),Syn. (Loewe volumes greater than 1 denoted “synergy”),Syn. (Loewe volumes greater than 1 denoted “synergy”),Syn. (Loewe volumes greater than 1 denoted “synergy”),Anta. (volumes <−1 denoted “antagonism”),Syn. (Loewe volumes greater than 1 denoted “synergy”),Anta. (volumes <−1 denoted “antagonism”),Syn. (Loewe volumes greater than 1 denoted “synergy”),Syn. (Loewe volumes greater than 1 denoted “synergy”),Syn. (Loewe volumes greater than 1 denoted “synergy”),Add. (A value between −1 and 1 denoted “additivity”),Syn. (Loewe volumes greater than 1 denoted “synergy”),Add. (A value between −1 and 1 denoted “additivity”),Syn. (Loewe volumes greater than 1 denoted “synergy”),Syn. (Loewe volumes greater than 1 denoted “synergy”)
